Reference: US10174067B2, “Type of cytidine derivative and application thereof” (priority 2014, dated 2019)
Marks after values point to notes of the source that are not given here.

Experiments:
[1] = system: HCT-116 colon cancer xenografts; assay: Tumor growth inhibition of HCT-116 colon cancer xenografts in tumor-bearing nude mice (tumor volume, TGI %, RTV, T/C %); assay type: in vivo, Balb/c Nude mice; conditions: G10-G16 groups, single IP 400 mg/kg
How it was run: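 Nude mice inoculated with HCT-116 cells (about 3×10^7 cells/mL in serum-free medium). Tumor diameter measured three times weekly and volume computed as V=3/4π(D/2)^3. Activity expressed as TGI (%) and T/C (%) from relative tumor volume Vt/V0, with V0 taken at grouping and dosing start; P<0.05 significant.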

[2] = system: ICR mice; assay: in vivo; conditions: female ICR mice; single-dose ip
How it was run: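 Female SPF ICR mice received a single ip dose in ethanol/Cremophor EL/saline (5:5:90), with dose lowered after deaths and raised otherwise. MTD defined as dose causing no death, no >10% weight loss versus Day 0 and no significant side effects; daily weights and twice-daily clinical observation over 7-14 days.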

[3] = How it was run: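 Female SPF Balb/c nude mice bearing subcutaneous HCT-116 xenografts (3×10^6 cells, right hind limb), grouped at 60–150 mm^3, 6 per group; vehicle ethanol/Cremophor EL/saline 5:5:90. Body weight thrice weekly; tumours excised and weighed at sacrifice; Mean±SEM, unpaired t-test, P<0.05.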
[4] = Day 1, G10-G16 groups, single IP 400 mg/kg, Mean±SEM
[5] = Day 2, G10-G16 groups, single IP 400 mg/kg, Mean±SEM
[6] = Day 4, G10-G16 groups, single IP 400 mg/kg, Mean±SEM
[7] = Day 7, G10-G16 groups, single IP 400 mg/kg, Mean±SEM
[8] = Day 9, G10-G16 groups, single IP 400 mg/kg, Mean±SEM
[9] = Day 11, G10-G16 groups, single IP 400 mg/kg, Mean±SEM
[10] = Day 14, G10-G16 groups, single IP 400 mg/kg, Mean±SEM
[11] = Day 16, G10-G16 groups, single IP 400 mg/kg, Mean±SEM
[12] = Day 18, G10-G16 groups, single IP 400 mg/kg, Mean±SEM
[13] = Day 21, G10-G16 groups, single IP 400 mg/kg, Mean±SEM
[14] = Day 23, G10-G16 groups, single IP 400 mg/kg, Mean±SEM
[15] = Day 25, G10-G16 groups, single IP 400 mg/kg, Mean±SEM
[16] = Day 28, G10-G16 groups, single IP 400 mg/kg, Mean±SEM
[17] = Day 30, G10-G16 groups, single IP 400 mg/kg, Mean±SEM

## CCCCOC(=O)Nc1nc(=O)n(C2OC(COC(=O)COc3nc(Cl)c(Cl)cc3Cl)C(O)C2(F)F)cc1I (centres unmarked) [Compound G11]
[1]; Day 0
  Day 0 (RTV): 1.00
[1]; Day 0, Mean±SEM
  Tumor volume, Day 0: 71.46 ± 18.69 mm^3
[1]; Day 1
  Day 1 (TGI %): 58.06%
[1]; Day 1, Mean±SEM
  Day 1 (RTV): 1.00 ± 0.13
  Tumor volume, Day 1: 75.71 ± 22.24** mm^3
[1]; Day 2
  Day 2 (TGI %): 58.57%
[1]; Day 2, Mean±SEM
  Day 2 (RTV): 1.14 ± 0.16
  Tumor volume, Day 2: 91.91 ± 29.38** mm^3
[1]; Day 4
  Day 4 (TGI %): 56.33%
[1]; Day 4, Mean±SEM
  Day 4 (RTV): 1.56 ± 0.24
  Tumor volume, Day 4: 129.69 ± 43.49** mm^3
[1]; Day 7
  Day 7 (TGI %): 53.56%
[1]; Day 7, Mean±SEM
  Day 7 (RTV): 2.68 ± 0.29
  Tumor volume, Day 7: 200.84 ± 57.86* mm^3
[1]; Day 9
  Day 9 (TGI %): 35.19%
[1]; Day 9, Mean±SEM
  Day 9 (RTV): 5.21 ± 0.68
  Tumor volume, Day 9: 382.62 ± 103.38 mm^3
[1]; Day 11
  Day 11 (TGI %): 49.22%
[1]; Day 11, Mean±SEM
  Day 11 (RTV): 6.61 ± 0.62
  Tumor volume, Day 11: 495.68 ± 140.53* mm^3
[1]; Day 14
  Day 14 (TGI %): 41.98%
[1]; Day 14, Mean±SEM
  Day 14 (RTV): 12.40 ± 1.29
  Tumor volume, Day 14: 835.57 ± 194.90* mm^3
[1]; Day 16
  Day 16 (TGI %): 41.43%
[1]; Day 16, Mean±SEM
  Day 16 (RTV): 16.20 ± 1.72
  Tumor volume, Day 16: 1060.78 ± 231.28* mm^3
[1]; Day 18
  Day 18 (TGI %): 36.63%
[1]; Day 18, Mean±SEM
  Day 18 (RTV): 20.33 ± 2.96
  Tumor volume, Day 18: 1266.27 ± 242.09* mm^3
[1]; Day 21
  Day 21 (TGI %): 32.98%
[1]; Day 21, Mean±SEM
  Day 21 (RTV): 26.21 ± 3.72
  Tumor volume, Day 21: 1638.64 ± 312.92 mm^3
[1]; Day 23
  Day 23 (TGI %): 28.91%
[1]; Day 23, Mean±SEM
  Day 23 (RTV): 27.62 ± 4.39
  Tumor volume, Day 23: 1678.97 ± 300.64 mm^3
[1]; Day 25
  Day 25 (TGI %): 28.29%
[1]; Day 25, Mean±SEM
  Day 25 (RTV): 30.73 ± 4.91
  Tumor volume, Day 25: 1851.89 ± 322.59 mm^3
[1]; Day 28
  Day 28 (TGI %): 20.94%
[1]; Day 28, Mean±SEM
  Day 28 (RTV): 36.20 ± 6.28
  Tumor volume, Day 28: 2126.03 ± 345.51 mm^3
[1]; Day 30
  Day 30 (TGI %): 39.43%
[1]; Day 30, Mean±SEM
  Day 30 (RTV): 56.36 ± 6.99
  Tumor volume, Day 30: 1699.56 ± 350.73 mm^3
[2]
  dose that could be tolerated (maximum tolerated dose, MTD): 400 mg/kg
[3]; Day 0, G10-G16 groups, single IP 400 mg/kg
  Weight change rate, Day 0: 0.00%
[3]; Day 0, G10-G16 groups, single IP 400 mg/kg, Mean±SEM
  Weight of mice, Day 0: 20.48 ± 0.27 g
[3]; [4]
  Weight change rate, Day 1: −5.41 ± 1.27 %
  Weight of mice, Day 1: 19.38 ± 0.43 g
[3]; [5]
  Weight change rate, Day 2: −6.03 ± 0.57 %
  Weight of mice, Day 2: 19.25 ± 0.31 g
[3]; [6]
  Weight change rate, Day 4: −2.00 ± 0.76%
  Weight of mice, Day 4: 20.07 ± 0.18 g
[3]; [7]
  Weight change rate, Day 7: −3.58 ± 1.49%
  Weight of mice, Day 7: 19.73 ± 0.17 g
[3]; [8]
  Weight change rate, Day 9: −0.18 ± 1.13%
  Weight of mice, Day 9: 20.43 ± 0.14 g
[3]; [9]
  Weight change rate, Day 11: 1.05 ± 1.44%
  Weight of mice, Day 11: 20.68 ± 0.20 g
[3]; [10]
  Weight change rate, Day 14: −1.81 ± 2.2%
  Weight of mice, Day 14: 20.10 ± 0.40 g
[3]; [11]
  Weight change rate, Day 16: 0.01 ± 2.83%
  Weight of mice, Day 16: 20.47 ± 0.49 g
[3]; [12]
  Weight change rate, Day 18: 1.66 ± 3.62%
  Weight of mice, Day 18: 20.80 ± 0.65 g
[3]; [13]
  Weight change rate, Day 21: −0.53 ± 3.44%
  Weight of mice, Day 21: 20.35 ± 0.59 g
[3]; Day 22, single IP dose (mg/kg)
  Day 22 Mortality: 0%
[3]; [14]
  Weight change rate, Day 23: −1.07 ± 3.55%
  Weight of mice, Day 23: 20.23 ± 0.57 g
[3]; [15]
  Weight change rate, Day 25: −0.06 ± 3.97%
  Weight of mice, Day 25: 20.43 ± 0.63 g
[3]; [16]
  Weight change rate, Day 28: −1.11 ± 3.89%
  Weight of mice, Day 28: 20.22 ± 0.61 g
[3]; [17]
  Weight change rate, Day 30: 3.01 ± 7.70%
  Weight of mice, Day 30: 21.00 ± 1.02 g
[3]; after single IP dose, compared with model control group
  clinical symptoms: no significant differences in clinical symptoms
